Reference: patent US7638678B2, “Animal model for perimenopause and menopause and methods of inducing ovarian failure” (The Arizona Board of Regents, priority 2002, dated 2009)
“Also recorded” adds a separate entry of the source.

Columns and labels:
[1] = test system: ovarian follicles (primordial, primary, secondary, antral); experiment: Histology and follicle counting after VCD dosing; format: in vivo, B6C3F1 mice
Procedure: (§1) Treatment: Immature mice (d28) were weighed and injected i.p. with either 80 mg/kg (1, 2, or 3 times daily), 160 mg/kg (1 or 2 times daily), or 240 mg/kg (once daily) with VCD or sesame oil (vehicle control, i.p.) for 15 d resulting in a total daily exposure of 80, 160, 240, or 320 mg/kg (n=6/group). All reagents were obtained from Sigma-Aldrich (St. Louis, Mo.). Estrous cycles of each animal were monitored daily by vaginal cytology from date of vaginal opening to persistent diestrus in VCD-treated mice, and from date of vaginal opening to d120 in controls. On d8, d10, d12, d14, d15, d30, d37, d46, d57 and d120, animals were weighed, euthanized by CO2 inhalation, and the ovaries, liver and trunk blood were collected. Plasma was separated from whole blood and stored at −20° C., and liver tissues were stored at −80° C. At each time point, adrenals, kidneys, uteri, ovaries, liver, and spleen were removed, grossly examined for lesions and wet tissue weights were recorded. Additional blood samples were collected by retro-orbital puncture and plasma was collected and stored on d58, d79, d91, and d100.
Histology and oocyte counting: Ovaries were trimmed of fat and placed in Bouin's fixative (2 hours), transferred to 70% ethanol, paraffin-embedded and serially sectioned (4-5 μm), mounted and stained with hematoxylin and eosin. In every 20th section (10-13 sections per ovary), pre-antral follicles were classified as primordial (oocyte surrounded by a single layer of flattened granulosa cells), primary (oocyte surrounded by a single layer of cuboidal cells), secondary (oocyte surrounded by multiple layers of granulosa cells) or antral follicles (follicles containing a fluid-filled antrum). Femora were collected on d58 from both control and VCD-treated animals, fixed in 4% paraformaldehyde, transferred to formaldehyde/formic acid (Cal-Rite, Richard Allan Scientific, Kalamazoo, […]., decalcified 24 hours, vacuum embedded in paraffin and 4.5 μm sections of distal metaphysis were prepared and stained with hematoxylin and eosin.
Data Analysis: Oocyte numbers were determined in ovaries from individual animals, averaged, and the means (±SEM) in control versus treated animals were analyzed for significant differences by one-way analysis of variance (ANOVA) with significance set at p<0.05. Post-hoc tests (Tukey-Kramer) were used where appropriate. The differences in plasma hormone concentrations among treatments were analyzed using a one-way ANOVA. The correlation coefficient was determined by regression analysis.

[2] = Tolerability of VCD dosing regimens; format: in vivo, mice
ovarian follicles [3] = experiment: Follicle depletion by other routes and vehicles; format: in vivo; conditions: i.p. injection in DMSO vehicle
[4] = cited from earlier work
osteocalcin = experiment: Osteocalcin immunoradiometric assay; format: in vivo, B6C3F1 mice; conditions: 160 mg/kg i.p. 15 d
Procedure: Osteocalcin measurement: Intact serum Osteocalcin was measured using an immunoradiometric assay (IRMA, Immutopics, San Clemente, Calif.). Assay sensitivity was 0.4 ng/ml and the intra-assay coefficient of variation was 6.7%.

estrous cycle = experiment: Estrous cyclicity by vaginal cytology; format: in vivo, B6C3F1 mice; conditions: 160 mg/kg i.p.
Procedure: as §1

[5] = Body and wet tissue weights, vaginal opening; format: in vivo, B6C3F1 mice
Procedure: as §1

ovarian follicles [6] = conditions: mice, cited from earlier work
17β-estradiol = experiment: Plasma 17β-estradiol radioimmunoassay; format: in vivo, B6C3F1 mice; conditions: 160 mg/kg 15 d, d37 through d91
Procedure: as §1, with “Plasma was separated from whole blood and stored at −20° C., and liver tissues were stored at −80° C.” left out, “Additional blood samples were collected by retro-orbital puncture and plasma was collected and stored on d58, d79, d91, and d100.” left out
Hormone Assays: Plasma FSH was measured by radioimmunoassay (RIA). […] Tubes were centrifuged for 15 minutes at 3000 rpm, supernatant was decanted and pellets were counted in a gamma counter for 1 minute each. […] Plasma 17β-estradiol was measured in unextracted plasma by radioimmunoassay (Diagnostic Products Inc., CA). […] Circulating androstenedione was measured by specific RIA. […] The results of all RIAs were calculated by four-parameter logistic analysis using the software AssayZap (BioSoft, Ferguson, Mo.). […]

[7] = 240 mg/kg (80 mg/kg 3× daily), 15 d, d15
[8] = 240 mg/kg (240 mg/kg 1× daily), 15 d, d15
[9] = 320 mg/kg (160 mg/kg 2× daily), 15 d, d15

With C1CC2OC2CC1C1CO1 (centres unmarked) [VCD, 4-vinylcyclohexene diepoxide] the Primary follicles ([1]; 80 mg/kg i.p. daily, 15 d, d15) was 38.6 % of control, the Primordial follicles ([1]; 80 mg/kg i.p. daily, 15 d, ovaries d15) was 12.1 % of control and the Primary follicles ([1]; 160 mg/kg (80 mg/kg 2× daily), 15 d, d15) was 11.3 % of control. The Primordial follicles ([1]; 160 mg/kg (80 mg/kg 2× daily, and 160 mg/kg 1× daily), 15 d, d15) was 0 % of control, the Primary follicles ([1]; 160 mg/kg (160 1× daily), 15 d, d15) was 2.8 % of control and the “Antral follicles on d46” value ([1]; 160 mg/kg i.p. 15 d, d46) was 2.6 % of control. The “Primary follicles on d46” value ([1]; 160 mg/kg i.p. 15 d, d46) was 0.5 % of control, the “Primordial follicles on d46” value ([1]; 160 mg/kg i.p. 15 d, d46) was “no primordial follicles” and the “Secondary follicles on d46” value ([1]; 160 mg/kg i.p. 15 d, d46) was 0.7 % of control. The “Primary and primordial follicle numbers over time” value ([1]; 160 mg/kg i.p., d8-d30) was “reduced (p<0.05) primary and primordial follicle numbers progressively over time”, the Antral follicle numbers ([1]; 160 mg/kg, 15 d, d15-d46) was “progressively reduced” and the “Primordial follicle loss at the optimal concentration” value ([1]; 160 mg/kg, injected 1× daily) was “complete loss of primordial follicles”. For the same compound, the Primary follicles [1, 7] was 5.1 % of control, the Primordial follicles [1, 7] was 2.1 % of control and the Primary follicles [1, 8] was 0 % of control. For the same compound, the Primordial follicles [1, 8] was 0 % of control, the Primary follicles [1, 9] was 0.6 % of control and the Primordial follicles [1, 9] was 0 % of control. The “Adverse effects of the single daily injection regimen” value ([2]; 160 mg/kg/d i.p. for 15 d) was “without adverse effects”, the “Outcome of total dose injected in a single bolus” value ([2]; 2400 mg/kg single bolus) was “died and die within hours” and the “Tolerance of dosing 3 times a day” value ([2]; 3 times a day @ 80 mg/kg (total 240 mg/kg/d)) was “tolerated VCD as well as mice injected once a day with 160 mg/kg; also recorded: tolerate VCD well”. For the same compound, the “Follicular depletion with DMSO vehicle versus sesame oil” value (ovarian follicles [3]) was “achieves the same follicular depletion”, the Water solubility [4] was “water soluble” and the Plasma osteocalcin (osteocalcin; d46) was 131.3 ± 5.4 ng/mL. The Plasma osteocalcin (osteocalcin; d58) was 156.3 ± 6.1 ng/mL, the Plasma osteocalcin (osteocalcin; d120 (not different from control)) was 143.4 ± 7.1 ng/mL and the Estrous cyclicity (estrous cycle; by d58) was “all animals were acyclic”. For the same compound, the “Animals with irregular cycle length” value (estrous cycle; d15, irregular = less than 3 d or greater than 5 d) was 7/24, the “Adrenal, kidney and spleen weight” value ([5]; 160 mg/kg 15 d, any time) was “not affected; also recorded: no effect” and the Whole body weights ([5]; 160 mg/kg 15 d, any time-point) was “not affected”. The “Increase in liver weight” value ([5]; 160 mg/kg 15 d, d15) was 10 % above control, the “Uterine weight relative to age-matched vehicle controls” value ([5]; 160 mg/kg 15 d, d15) was 66.04% and the “Increase in liver weight” value ([5]; 160 mg/kg 15 d, d37) was 15 % above control. The Ovarian weight ([5]; 160 mg/kg 15 d, d37) was 71.2 % of control, the “Uterine weight relative to age-matched vehicle controls” value ([5]; 160 mg/kg 15 d, d37) was 71.8% and the Liver weight ([5]; 160 mg/kg 15 d, d46) was “returned to control levels”. The Ovarian weight ([5]; 160 mg/kg 15 d, d46) was 61.8 % of control, the Ovarian weight ([5]; 160 mg/kg 15 d, d120) was 20.7 % of control and the “Uterine weight relative to age-matched vehicle controls” value ([5]; 160 mg/kg 15 d, d120) was 47.0%. The “Ovarian tissue weights across treatment groups” value ([5]; d10 or d15) was “not significantly different”, the “Onset of vaginal opening” value ([5]; not affected by VCD treatment) was 31 ± 0.5 days and the “Number of primordial and primary follicles compared to vehicle controls” value (ovarian follicles [6]; 12 days of dosing) was “significant reduction”. The “Numbers of secondary follicles” value (ovarian follicles [6]; 30 days of dosing) was “significant reduction” and the “Plasma levels of 17β-estradiol” value (17β-estradiol) was “below the limit of detection”.
